Test results from ChEMBL document CHEMBL1129482, “Synthesis and anti-herpes virus activity of 2'-deoxy-4'-thiopyrimidine nucleosides” (J Med Chem, 1996).

Key:
[1] = test system: Human betaherpesvirus 5; experiment: Inhibitory activity against human cytomegalovirus (HCMV) strain AD169 in MRC-5 cells.; assay type: functional, organism-based; details: Human betaherpesvirus 5, MRC5
[2] = test system: Human alphaherpesvirus 3; experiment: Inhibitory activity against varicella zoster virus (VZV) strain G31 in MRC-5 cells.; assay type: functional, organism-based; details: Human alphaherpesvirus 3, MRC5
[3] = test system: Human alphaherpesvirus 1; experiment: Inhibitory activity against herpes simplex virus type 1 (HSV-1) strain SC16 in Vero cells.; assay type: functional, organism-based; details: Human alphaherpesvirus 1, Vero
[4] = Inhibitory activity against herpes simplex virus type 2 (HSV 2) strain 186 in Vero cells.; assay type: functional, cell-based
[5] = test system: Vero; experiment: Inhibitory dose required to reduce the growth of vero cells by 50% over a 4 day period.; assay type: functional, Chlorocebus sabaeus
[6] = test system: Vero; experiment: Inhibitory dose required to reduce the growth of Vero cells by 50% over a 4 day period; assay type: functional, Chlorocebus sabaeus
[7] = test system: MRC5; experiment: Inhibitory activity against varicella zoster virus (VZV) strain G31 was determined in MRC-5 cells; Toxicity at 40 uM; assay type: functional, cell-based, Homo sapiens
[8] = test system: Vero; experiment: Inhibitory activity against herpes simplex virus type 1 (HSV 1) strain SC16 was determined in Vero cells; Range is 0.17-0.5 uM; assay type: functional, cell-based; details: Chlorocebus sabaeus
[9] = test system: Vero; experiment: Inhibitory activity against herpes simplex virus type 2 (HSV 2) strain 186 was determined in Vero cells; Range is 2-5 uM; assay type: functional, cell-based; details: Chlorocebus sabaeus

Row | SMILES | IC50 [1] [µM] | IC50 [2] [µM] | IC50 [3] [µM] | IC50 [4] [µM] | CCID50 [5] [µM] | CCID50 [6] [µM] | IC50 [7] | IC50 [8] [µM] | IC50 [9] [µM]
1 | O=c1[nH]c(=O)n([C@H]2CC(O)C(CO)S2)cc1I (stereo partly specified) | 4 | 3.5 | 0.8 | 10 | >100 | – | – | – | –
2 | O=c1[nH]c(=O)n([C@H]2CC(O)C(CO)S2)cc1[N+](=O)[O-] (stereo partly specified) | – | 13 | 18 | 27 | 476 | – | – | – | –
3 | CCc1cn([C@@H]2CC(O)C(CO)S2)c(=O)[nH]c1=O (stereo partly specified) | > 100 | > 100 | – | > 100 | >100 | – | – | – | –
4 | C#Cc1cn([C@H]2CC(O)C(CO)S2)c(=O)[nH]c1=O (stereo partly specified) | 9.3 | 5.5 | 6.6 | > 10 | 33 | – | – | – | –
5 | CSCc1cn(C2CC(O)C(CO)S2)c(=O)[nH]c1=O (stereo unspecified) | > 100 | – | – | > 100 | >500 | – | – | – | –
6 | O=c1[nH]c(=O)n(C2CC(O)C(CO)S2)cc1CCCl (stereo unspecified) | – | 0.3 | 0.15 | > 100 | >200 | – | – | – | –
7 | O=c1[nH]c(=O)n([C@@H]2CC(O)C(CO)S2)cc1[N+](=O)[O-] (stereo partly specified) | – | > 100 | > 100 | > 100 | – | – | – | – | –
8 | O=c1[nH]c(=O)n([C@H]2CC(O)C(CO)S2)cc1C(F)(F)F (stereo partly specified) | > 10 | – | < 1.6 | 15 | 139 | – | – | – | –
9 | COCc1cn(C2CC(O)C(CO)S2)c(=O)[nH]c1=O (stereo unspecified) | > 100 | > 10 | > 10 | > 10 | – | – | – | – | –
10 | N#Cc1cn([C@H]2CC(O)C(CO)S2)c(=O)[nH]c1=O (stereo partly specified) | > 100 | > 100 | > 100 | > 100 | >500 | – | – | – | –
11 | CCC(C)c1cn(C2CC(O)C(CO)S2)c(=O)[nH]c1=O (stereo unspecified) | > 100 | – | – | > 100 | >500 | – | – | – | –
12 | Nc1nc2c(ncn2COCCO)c(=O)[nH]1 [ACYCLOVIR] | > 85 | – | 1.8 | 1.7 | >500 | – | – | – | –
13 | O=c1[nH]c(=O)n([C@H]2CC(O)C(CO)S2)cc1Cl (stereo partly specified) | 0.2 | > 40 | > 100 | > 100 | 59 | – | – | – | –
14 | C=C(C)c1cn([C@H]2CC(O)C(CO)S2)c(=O)[nH]c1=O (stereo partly specified) | > 100 | < 40 | 3.4 | > 100 | – | >500 | – | – | –
15 | COc1cn(C2CC(O)C(CO)S2)c(=O)[nH]c1=O (stereo unspecified) | > 100 | > 100 | > 100 | > 100 | – | – | – | – | –
16 | O=c1[nH]c(=O)n([C@H]2CC(O)C(CO)S2)cc1/C=C/Cl (stereo partly specified) | > 100 | > 10 | 0.5 | > 100 | >500 | – | – | – | –
17 | O=c1[nH]c(=O)n([C@H]2CC(O)C(CO)S2)cc1Br (stereo partly specified) | 0.44 | > 40 | 5.3 | > 100 | >500 | – | – | – | –
18 | CC(O)c1cn(C2CC(O)C(CO)S2)c(=O)[nH]c1=O (stereo unspecified) | > 100 | 12 | 40 | > 100 | >500 | – | – | – | –
19 | C=Cc1cn([C@H]2CC(O)C(CO)S2)c(=O)[nH]c1=O (stereo partly specified) | 93 | 1.1 | 1.4 | > 100 | >500 | – | – | – | –
20 | CC(C)(C)c1cn([C@H]2CC(O)C(CO)S2)c(=O)[nH]c1=O (stereo partly specified) | > 100 | – | – | > 100 | 475 | – | – | – | –

Row | SMILES | IC50 [1] [µM] | IC50 [2] [µM] | IC50 [3] [µM] | IC50 [4] [µM] | CCID50 [5] [µM] | CCID50 [6] [µM] | IC50 [7] | IC50 [8] [µM] | IC50 [9] [µM]
21 | CC(C)c1cn([C@H]2CC(O)C(CO)S2)c(=O)[nH]c1=O (stereo partly specified) | > 100 | 4.1 | 2.2 | > 100 | >500 | – | – | – | –
22 | O=c1[nH]c(=O)n([C@H]2CC(O)C(CO)S2)cc1C(F)=C(Cl)Cl (stereo partly specified) | > 100 | > 100 | > 50 | – | >500 | – | – | – | –
23 | CC(=O)c1cn(C2CC(O)C(CO)S2)c(=O)[nH]c1=O (stereo unspecified) | > 100 | > 10 | > 10 | > 10 | 351 | – | – | – | –
24 | O=c1[nH]c(=O)n([C@H]2CC(O)C(CO)S2)cc1C=C(F)F (stereo partly specified) | > 100 | > 10 | – | > 100 | >500 | – | – | – | –
25 | COCCc1cn([C@H]2CC(O)C(CO)S2)c(=O)[nH]c1=O (stereo partly specified) | > 100 | > 10 | – | > 100 | – | – | – | – | –
26 | O=c1[nH]c(=O)n([C@H]2CC(O)C(CO)S2)cc1CC(F)(F)F (stereo partly specified) | > 100 | > 40 | – | > 100 | >500 | – | – | – | –
27 | COC(C)c1cn(C2CC(O)C(CO)S2)c(=O)[nH]c1=O (stereo unspecified) | > 100 | > 40 | > 100 | > 100 | >500 | – | – | – | –
28 | O=c1[nH]c(=O)n([C@H]2CC(O)C(CO)S2)cc1CCF (stereo partly specified) | > 100 | 0.12 | 0.7 | > 100 | >500 | – | – | – | –
29 | CCCc1cn([C@H]2CC(O)C(CO)S2)c(=O)[nH]c1=O (stereo partly specified) | > 100 | 3 | 6.8 | > 10 | >100 | – | – | – | –
30 | O=c1[nH]c(=O)n([C@H]2C[C@H](O)[C@@H](CO)O2)cc1/C=C/Br [BRIVUDINE] | > 100 | < 1 | 1.4 | 10 | >250 | – | – | – | –
31 | O=c1[nH]c(=O)n([C@H]2CC(O)C(CO)S2)cc1C1CC1 (stereo partly specified) | > 100 | 0.5 | 1.6 | > 100 | >500 | – | – | – | –
32 | O=c1[nH]c(=O)n(C2CC(O)C(CO)S2)cc1F (stereo unspecified) | > 100 | > 100 | > 10 | > 10 | 92 | – | – | – | –
33 | O=c1[nH]c(=O)n([C@H]2CC(O)C(CO)S2)cc1C12CC3CC(CC(C3)C1)C2 (stereo partly specified) | > 100 | – | > 100 | > 100 | >125 | – | Toxic | – | –
34 | C/C=C/c1cn([C@H]2CC(O)C(CO)S2)c(=O)[nH]c1=O (stereo partly specified) | > 100 | 0.46 | > 2 | > 20 | >100 | – | – | – | –
35 | O=c1[nH]c(=O)n([C@@H]2CC(O)C(CO)S2)cc1C(F)(F)F (stereo partly specified) | > 100 | – | – | > 100 | >500 | – | – | – | –
36 | Nc1nc(O)c2ncn(CCC(CO)CO)c2n1 [PENCICLOVIR] | > 100 | 78.7 | 3.9 | 12.8 | – | – | – | – | –
37 | C#CCc1cn([C@H]2CC(O)C(CO)S2)c(=O)[nH]c1=O (stereo partly specified) | 100 | 1.4 | > 100 | > 100 | 492 | – | – | – | –
38 | O=C1NC(=O)N(C2CC(O)C(CO)S2)C2CCCC12 (stereo unspecified) | > 100 | > 40 | – | > 100 | >500 | – | – | – | –
39 | CCc1cn([C@H]2CC(O)C(CO)S2)c(=O)[nH]c1=O (stereo partly specified) | 138 | 0.99 | – | – | >100 | – | – | 0.17 | 2
